# From patent US4393228A, “Epoxysuccinic acid derivatives” (Taisho Pharmaceutical Co., Ltd., priority 1977, dated 1983)
# Counter-ions that a name gives are not always drawn. Like-named read-outs stand apart in the source and are kept apart here.
# Experiments:
# [1] = test system: adjuvant induced polyarthritis; experiment: Inhibition of adjuvant induced polyarthritis in rats (hind paw volume); format: in vivo, Sprague Dawley rat; conditions: Rattus norvegicus, 100 mg/kg of body weight, daily oral
# Description: Effect of the compounds of this invention on the development of adjuvant-induced polyarthritis in rats was assayed as follows: Adjuvant arthritis was produced by a single intracutaneous injection of 0.1 ml of the adjuvant mixture containing heat-killed mycobacteria of the human Aoyama B strain suspended in liquid paraffin in 0.6% in the middle part of the distal tail of Sprague Dawley rat (female, 8 weeks old). […] The activity was measured as the mean inhibition percent for the increase of the hind paw volume of the 8 rats/group on the days 17 and 23 on which the legs become inflamed and reach maximum volumes. The compound Nos. in Table 2 are as defined in Examples as described hereinafter.
# papain = biological target: T1, papain (Carica papaya, UniProt P00784); experiment: Papain inhibitory activity (milk casein digestion); format: biochemical; conditions: papain 80 μg/ml 0.5 ml, cysteine, pH 6.8, 1% milk casein, 40° C., 10 minutes
# T1 construct: purchased Sigma Chem. Co
# T1 sequence (P00784 134-345): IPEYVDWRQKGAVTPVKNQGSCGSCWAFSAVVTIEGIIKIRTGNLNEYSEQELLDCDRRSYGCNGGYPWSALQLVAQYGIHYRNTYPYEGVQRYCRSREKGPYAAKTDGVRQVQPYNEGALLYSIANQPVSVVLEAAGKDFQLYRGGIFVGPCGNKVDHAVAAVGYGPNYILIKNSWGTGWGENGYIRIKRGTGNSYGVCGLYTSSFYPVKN
# How it was run: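 Papain (80 μg/ml stock) preincubated 15 min at 40 °C with inhibitor, cysteine/EDTA activator and phosphate buffer pH 6.8. Then 1% milk casein digested 10 min at 40 °C, stopped with trichloroacetic acid and filtered; filtrate absorbance at 280 nm gives percent inhibition versus no-inhibitor control.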
# [2] = 408 h, day 17, read-out: Inhibition % 17 days (increase of hind paw volume)
# [3] = 552 h, day 23, read-out: Inhibition % 23 days (increase of hind paw volume)
Structure (SMILES),"inhibition in vivo at 100 mg/kg [1, 2] [%]","inhibition in vivo at 100 mg/kg [1, 3] [%]",ID50 (amount of inhibitor for 50% inhibition) (papain)
"O=C(OC1CCCCC1)[C@@H]1O[C@H]1C(=O)OC1CCCCC1 (relative stereo) [EP-1, dicyclohexyl epoxysuccinate]",82.1,77,1.98 γ
"O=C(O)[C@@H]1O[C@H]1C(=O)OC1CCCCC1 (relative stereo) [EP-2, cyclohexyl potassium epoxysuccinate]",43.2,50,0.07 γ
"C[C@H]1CC[C@@H](OC(=O)[C@@H]2O[C@H]2C(=O)O[C@H]2CC[C@@H](C)CC2)CC1 (relative stereo) [EP-17, di-4'-cis-methylcyclohexyl epoxysuccinate]",100,78.7,1.79 γ
"O=C(OC1CCCC1)[C@@H]1O[C@H]1C(=O)OC1CCCC1 (relative stereo) [EP-25, dicyclopentyl epoxysuccinate]",52.6,77.8,3.03 γ
"O=C(O)[C@@H]1O[C@H]1C(=O)OC1CCCC1 (relative stereo) [EP-26, cyclopentyl potassium epoxysuccinate]",52,55.5,0.08 γ
"O=C(OCC1CCCO1)[C@@H]1O[C@H]1C(=O)OCC1CCCO1 (relative stereo) [EP-75, di-tetrahydro-2-furanmethyl epoxysuccinate]",89.6,41,1.65 γ
"CCOC(=O)[C@H](CCCCNC(=O)OCc1ccccc1)NC(=O)C1OC1C(=O)[O-].[K+] (stereo partly drawn) [EP-195, N^α -(3-carboxyoxirane-2-carbonyl)-N^ε -carbobenzoxy-L-lysine ethyl ester potassium salt]",,,0.43 γ
"O=C(NCCC[C@H](NC(=O)C1OC1C(=O)O)C(=O)OCc1ccccc1)OCc1ccccc1 (stereo partly drawn) [EP-196, N^α -(3-carboxyoxiane-2-carbonyl)-N^δ -carbobenzoxy-L-ornithine benzyl ester potassium salt]",,,0.11 γ
"O=C(NCCCC[C@H](NC(=O)C1OC1C(=O)[O-])C(=O)OCc1ccccc1)OCc1ccccc1.[K+] (stereo partly drawn) [EP-197, N^α -(3-carboxyoxirane-2-carbonyl)-N^ε -carbobenzoxy-L-lysine benzyl ester potassium salt]",,,0.98 γ
"COC(=O)[C@H](CCCNC(=O)OCc1ccccc1)NC(=O)C1OC1C(=O)[O-].[K+] (stereo partly drawn) [EP-198, N^α -(3-carboxyoxirane-2-carbonyl)-N^δ -carbobenzoxy-L-ornithine methyl ester potassium salt]",,,0.15 γ
"CCCCOC(=O)[C@H](CCCNC(=O)OCc1ccccc1)NC(=O)C1OC1C(=O)[O-].[K+] (stereo partly drawn) [EP-199, N^α -(3-carboxyoxirane-2-carbonyl)-N^δ -carbobenzoxy-L-ornithine n-butyl ester potassium salt]",,,0.14 γ
"COC(=O)[C@H](CCCNC(=N)N)NC(=O)C1OC1C(=O)O (stereo partly drawn) [EP-200, N-(3-carboxyoxirane-2-carbonyl)-L-arginine methyl ester]",,,0.88 γ
"CCOC(=O)C1OC1C(=O)N[C@@H](CCCCN)C(=O)O (stereo partly drawn) [EP-201, N-(3-ethoxycarbonyloxirane-2-carbonyl)-L-lysine]",,,25.51 γ
"N=C(N)NCCC[C@H](NC(=O)C1OC1C(=O)O)C(=O)O (stereo partly drawn) [EP-202, N-(3-carboxyoxirane-2-carbonyl)-L-arginine]",,,21.93 γ
"CCOC(=O)[C@H](CC(C)C)NC(=O)C1OC1C(=O)OCCCC1CCCC1 (stereo partly drawn) [EP-203, N-[3-(3'-cyclopentylpropyloxy)carbonyloxirane-2-carbonyl]-L-leucine ethyl ester]",,,0.12 γ
"O=C(NCCCC[C@H](NC(=O)C1OC1C(=O)OC1CC1)C(=O)OCc1ccccc1)OCc1ccccc1 (stereo partly drawn) [EP-204, N^α -(3-cyclopropyloxycarbonyloxirane-2-carbonyl)-N^ε-carbobenzoxy-L-lysine benzyl ester]",,,15.20 γ
"CC(C)[C@H](NC(=O)C1OC1C(=O)OC1CCCC1)C(=O)OCc1ccccc1 (stereo partly drawn) [EP-205, N-(3-cyclopentyloxycarbonyloxirane-2-carbonyl)-L-valine benzyl ester]",,,0.82 γ
"CC(OC(=O)C1OC1C(=O)N[C@@H](CCCCN)C(=O)OCc1ccccc1)C1CCCC1 (stereo partly drawn) [EP-206, N-[3-(1'-cyclopentylethoxy)-carbonyloxirane-2-carbonyl]-L-lysine benzyl ester]",,,0.12 γ
"O=C(CC[C@H](NC(=O)C1OC1C(=O)OC1CCCCCCC1)C(=O)OCc1ccccc1)OCc1ccccc1 (stereo partly drawn) [EP-209, N-(3-cyclooctyloxycarbonyloxirane-2-carbonyl)-L-glutamic acid dibenzyl ester]",,,2.45 γ
"CCOC(=O)[C@H](Cc1ccccc1)NC(=O)C1OC1C(=O)OC1C2CC3CC(C2)CC1C3 (stereo partly drawn) [EP-210, N-[3-(2'-adanatyloxy)-carbonyloxirane-2-carbonyl]-L-phenyl alanine ethyl ester]",,,1.12 γ
"O=C(N[C@@H](Cc1ccc(O)cc1)C(=O)OCc1ccccc1)C1OC1C(=O)OCC1CC=CCC1 (stereo partly drawn) [EP-211, N-[3-(3'-cyclohexen-1-yl)-methoxycarbonyloxirane-2-carbonyl]-L-tyrosine benzyl ester]",,,0.61 γ
"CCOC(=O)[C@H](Cc1ccccc1)NC(=O)C1OC1C(=O)OC1CCCCC1C (stereo partly drawn) [EP-212, N-[3-(2'-cis-methylcyclohexyloxy)carbonyloxirane-2-carbonyl]-L-phenylalanine ethyl ester]",,,1.21 γ
"O=C(CNC(=O)C1OC1C(=O)OC1CCCC1Cl)OCc1ccccc1 (stereo not drawn) [EP-213, N-[3-(2'-cis-chlorocyclopentyloxy)-carbonyloxirane-2-carbonyl]-glycine benzyl ester]",,,6.75 γ
"CC(C)C[C@H](NC(=O)C1OC1C(=O)OC1CCCC1Br)C(=O)OCc1ccccc1 (stereo partly drawn) [EP-214, N-[3-(2'-trans-bromocyclopentyloxy)-carbonyloxirane-2-carbonyl]-L-leucine benzyl ester]",,,0.13 γ
"COC(=O)[C@H](C)NC(=O)C1OC1C(=O)O[C@H]1CC[C@H](C)CC1 (stereo partly drawn) [EP-215, N-[3-(4'-trans-methylcyclohexyloxy)-carbonyloxirane-2-carbonyl]-L-alanine methyl ester]",,,3.55 γ
"CCCCOC(=O)[C@H](CC(C)C)NC(=O)C1OC1C(=O)OCc1ccco1 (stereo partly drawn) [EP-217, N-[3-furfuryloxycarbonyloxirane-2-carbonyl]-L-leucine n-butyl ester]",,,0.25 γ
"CC(C)(C)OC(=O)[C@H](Cc1ccccc1)NC(=O)C1OC1C(=O)OCC1CCCO1 (stereo partly drawn) [EP-218, N-[3-tetrahydrofurfuryloxycarbonyloxirane-2-carbonyl]-L-phenylalanine t-butyl ester]",,,1.65 γ
CCOC(=O)[C@@H](NC(=O)C1OC1C(=O)OCc1cccc2ccccc12)C(C)C (stereo partly shown) [EP-219],,,2.12 γ
